Laboratory results: patent US12178817B2, “Compounds for enhancing PPARγ expression and nuclear translocation and therapeutic use thereof” (REALINN LIFE SCIENCE LIMITED, priority 2015, dated 2024)

What was measured:
PPARγ = assay: Expression of PPARγ in HEK293 cells treated with LPS and dipyridamole (Western blot of nuclear proteins); type: cell-based, human
Method: The cell line used in the assay was human embryonic kidney cells, HEK293. The cells were collected at 0 h, 3 h and 12 h after treatment. The collected cells were washed with 150 μL Buffer A (10 mM Hepes pH=7.9, 1.5 mM MgCl2, 10 mM KCl, 1.0 mM DTT, 0.1% Triton-X 100), and centrifuged at 3000 g for 10 minutes at 4° C. Supernatant containing cytosolic proteins was collected, and the pellets were re-suspended with 50 μL Buffer B (20 mM Hepes pH=7.9, 1.5 mM MgCl2, 0.42M NaCl, 1.0 mM DTT, 1.0M PMSF, 0.2 mM EDTA) and incubated on ice for 30 minutes followed by centrifuging at 12000 g for 10 minutes at 4° C. Supernatant containing nucleic proteins was then collected, and the expression of P65 protein, which is indicative of the activation of PPARγ, was analyzed using Western blotting. The method is as follows: Protein concentration was measured using Bradford assay. 6× sample buffer (0.8 mM Tris-HCl, 10 mM EDTA, 10% SDS, 60% glycerol, 0.6 M β-mercaptoethano, 0.06% bromophenol blue, pH 6.8) was added into 50 μg of nuclear proteins and an equal volume of lysis buffer was added into the samples. After being heated at 95° C. for 10 minutes to denature the proteins, the samples were immediately cooled on ice. […] Photos of the images were taken using automated chemiluminescence and fluorescence imaging system (UVP Biospectrum). […]

[1] = system: mice with LPS-induced sepsis; assay: Survival rate analysis in mice with LPS-induced sepsis; type: in vivo; conditions: high dose
Method: Male C57Bl/6J mice, 8-12 weeks of age, were used in this study. They were reared in an air-conditioned environment with 6 am to 18 pm light cycle and fed standard rodent chow ad libitum. […] First, mice were injected intraperitoneally with LPS (16 mg/kg) and followed for 72 hours to observe the survival rate.

[2] = Non-invasive blood pressure measurement in mice after intravenous administration; conditions: high dose

## OCCN(CCO)c1nc(N2CCCCC2)c2nc(N(CCO)CCO)nc(N3CCCCC3)c2n1 [dipyridamole]
PPARγ
  PPARγ expression and nuclear translocation: promote PPARγ expression and nuclear translocation
[1]
  effect on physiological conditions and survival rate: influences physiological conditions and survival rate
[2]
  effect on blood pressure: leads to changes in blood pressure
